Experimental findings from ChEMBL document CHEMBL2331241, “Synthesis of C-cinnamoyl glycosides and their inhibitory activity against mammalian carbonic anhydrases” (Bioorg Med Chem, 2013) are described below.

The target in one test is Carbonic anhydrase 9 (Homo sapiens, UniProt Q16790). Briefly: Inhibition of human carbonic anhydrase 9 preincubated for 15 mins by CO2 hydration stopped-flow assay.
The target of the next test is Carbonic anhydrase 3 (Homo sapiens, UniProt P07451). Nature of the test: Inhibition of human carbonic anhydrase 3 preincubated for 15 mins by CO2 hydration stopped-flow assay.
Sequence of Carbonic anhydrase 3 (P07451 whole entry): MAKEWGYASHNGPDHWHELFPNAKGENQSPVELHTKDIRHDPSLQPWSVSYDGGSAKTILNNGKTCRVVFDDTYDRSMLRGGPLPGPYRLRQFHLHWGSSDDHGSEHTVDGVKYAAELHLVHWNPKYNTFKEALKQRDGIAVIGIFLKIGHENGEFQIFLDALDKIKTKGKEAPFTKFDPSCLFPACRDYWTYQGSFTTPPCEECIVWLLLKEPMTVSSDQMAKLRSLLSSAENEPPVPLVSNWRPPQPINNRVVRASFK
In test [1] the target is Carbonic anhydrase 5B, mitochondrial (Homo sapiens, UniProt Q9Y2D0).
Sequence of Carbonic anhydrase 5B, mitochondrial (Q9Y2D0 whole entry): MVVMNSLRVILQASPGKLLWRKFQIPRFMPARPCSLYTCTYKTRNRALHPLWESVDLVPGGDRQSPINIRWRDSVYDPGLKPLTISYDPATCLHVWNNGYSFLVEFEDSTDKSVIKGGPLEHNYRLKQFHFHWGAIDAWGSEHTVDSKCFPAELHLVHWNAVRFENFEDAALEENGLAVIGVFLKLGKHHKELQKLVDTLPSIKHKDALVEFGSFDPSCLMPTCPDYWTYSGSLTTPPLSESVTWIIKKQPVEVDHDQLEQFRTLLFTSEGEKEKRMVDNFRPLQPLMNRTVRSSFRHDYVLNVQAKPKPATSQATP
Description: Inhibition of human carbonic anhydrase 5B preincubated for 15 mins by CO2 hydration stopped-flow assay
The target of a further test is Carbonic anhydrase 6 (Homo sapiens, UniProt P23280). Nature of the test: Inhibition of human carbonic anhydrase 6 preincubated for 15 mins by CO2 hydration stopped-flow assay.
Sequence of Carbonic anhydrase 6 (P23280 whole entry): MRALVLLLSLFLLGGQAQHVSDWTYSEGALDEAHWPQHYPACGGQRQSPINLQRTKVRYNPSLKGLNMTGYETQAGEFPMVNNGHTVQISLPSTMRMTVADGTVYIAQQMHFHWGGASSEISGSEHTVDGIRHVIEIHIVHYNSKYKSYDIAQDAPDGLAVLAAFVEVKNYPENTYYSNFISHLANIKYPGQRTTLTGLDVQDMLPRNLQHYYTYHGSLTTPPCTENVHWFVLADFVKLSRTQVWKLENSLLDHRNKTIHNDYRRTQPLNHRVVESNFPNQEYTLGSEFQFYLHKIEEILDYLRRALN

On to `CC(=O)OC[C@H]1O[C@@H](CC(=O)/C=C/c2ccc(O)cc2)[C@H](OC(C)=O)[C@@H](OC(C)=O)[C@@H]1OC(C)=O`, for which the Ki on Carbonic anhydrase 9 is 5.9 µM; at Carbonic anhydrase 3, > 100 µM.
Taken in the same sequence, the figures for `CC(=O)OC[C@H]1O[C@@H](CC(=O)/C=C/c2ccc(O)cc2)[C@H](OC(C)=O)[C@@H](OC(C)=O)[C@H]1OC(C)=O` were 2.9 µM and > 100 µM.
For `O=C(/C=C/c1cccc(O)c1)C[C@@H]1O[C@H](CO)[C@H](O)[C@H](O)[C@H]1O`, the Ki on Carbonic anhydrase 9 was 9.2 µM; in test [1], > 100 µM; at Carbonic anhydrase 3 it was > 100 µM.
Turning to `O=C(/C=C/c1cccc(O)c1)C[C@@H]1O[C@H](CO)[C@@H](O)[C@H](O)[C@H]1O`, the Ki at Carbonic anhydrase 9 was 4.5 µM; in test [1], > 100 µM; at Carbonic anhydrase 3 it was > 100 µM.
Take `CC(=O)OC[C@H]1O[C@@H](CC(=O)/C=C/c2cccc(O)c2)[C@H](OC(C)=O)[C@@H](OC(C)=O)[C@H]1OC(C)=O`: the Ki on Carbonic anhydrase 9 was 3.3 µM; on Carbonic anhydrase 3 it was > 100 µM.
For `CC(=O)OC[C@H]1O[C@@H](CC(=O)/C=C/c2cccc(O)c2)[C@H](OC(C)=O)[C@@H](OC(C)=O)[C@@H]1OC(C)=O`, the inhibitory constant (Ki) at Carbonic anhydrase 9 was 5.2 µM; on Carbonic anhydrase 3, > 100 µM.
In the case of `O=C(/C=C/c1ccc(O)cc1)C[C@@H]1O[C@H](CO)[C@@H](O)[C@H](O)[C@H]1O`, the inhibition constant Ki is 8.2 µM on Carbonic anhydrase 9, > 100 µM in test [1], > 100 µM on Carbonic anhydrase 6 and > 100 µM at Carbonic anhydrase 3.
As to `O=C(/C=C/c1ccc(O)cc1)C[C@@H]1O[C@H](CO)[C@H](O)[C@H](O)[C@H]1O`, the inhibition constant (Ki) at Carbonic anhydrase 9 was 8.2 µM; in test [1], > 100 µM; on Carbonic anhydrase 6, > 100 µM; at Carbonic anhydrase 3, 8.4 µM.
